# Reference: patent US8946439B2, “Amide compounds, compositions and uses thereof” (Evotec AG, priority 2008, dated 2015)
# Read-outs that look alike come from different tables or passages of the source.
# Columns and labels:
# [1] = target: T1, hP2X2/3H (Homo sapiens, UniProt P56373+Q9UBL9); test: Calcium uptake assay (P2X antagonist assay), P2X2/3 heteromer; format: cell-based; settings: hP2X2/3H
# T1 construct: expressed in transfected cells; host or cells: e.g. HEK293 or 1321N1
# T1 sequence (Q9UBL9 1-471): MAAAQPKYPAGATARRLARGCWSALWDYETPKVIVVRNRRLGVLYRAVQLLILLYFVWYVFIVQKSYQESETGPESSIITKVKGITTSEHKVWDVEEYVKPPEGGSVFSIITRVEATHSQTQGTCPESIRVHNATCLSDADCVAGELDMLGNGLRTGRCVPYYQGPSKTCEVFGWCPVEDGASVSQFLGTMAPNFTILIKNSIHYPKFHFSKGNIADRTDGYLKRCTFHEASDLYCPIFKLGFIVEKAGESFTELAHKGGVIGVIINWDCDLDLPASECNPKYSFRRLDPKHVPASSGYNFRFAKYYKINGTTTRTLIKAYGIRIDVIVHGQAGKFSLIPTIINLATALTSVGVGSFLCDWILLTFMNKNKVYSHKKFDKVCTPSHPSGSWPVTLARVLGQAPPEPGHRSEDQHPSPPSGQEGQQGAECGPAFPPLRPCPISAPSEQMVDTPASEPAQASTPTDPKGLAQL
# T1 sequence (P56373 1-397): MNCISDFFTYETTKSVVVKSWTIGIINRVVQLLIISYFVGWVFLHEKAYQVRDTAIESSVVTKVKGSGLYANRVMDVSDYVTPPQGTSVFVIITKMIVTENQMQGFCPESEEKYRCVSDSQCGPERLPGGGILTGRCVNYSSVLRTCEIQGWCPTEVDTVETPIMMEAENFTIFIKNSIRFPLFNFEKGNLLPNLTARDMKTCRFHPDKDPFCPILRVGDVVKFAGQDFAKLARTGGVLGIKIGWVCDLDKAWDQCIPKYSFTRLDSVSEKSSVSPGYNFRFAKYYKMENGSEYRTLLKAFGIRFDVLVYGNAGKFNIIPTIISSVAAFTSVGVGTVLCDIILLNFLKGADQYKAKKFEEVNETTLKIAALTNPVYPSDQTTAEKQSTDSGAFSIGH
# Procedure, shortened: (§1)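 Stably or transiently transfected HEK293 or 1321N1 cells; the heteromer is made by adding P2X3 to a P2X2-stable line, with heteromer function isolated pharmacologically. The peak-minus-baseline FLIPR calcium signal gives % inhibition and a 4-parameter-logistic IC50.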
# [2] = target: T2, hP2X3 (Homo sapiens, UniProt P56373); test: Calcium uptake assay (P2X antagonist assay), P2X3 homomer; format: cell-based; settings: hP2X3
# T2 construct: expressed in transfected cells; host or cells: e.g. HEK293 or 1321N1
# T2 sequence (P56373 1-397): T1 sequence (P56373 1-397)
# Procedure, shortened: as §1
# [3] = calcium uptake assay, read-out: IC50 hP2X2/3H (nM), Ca Influx
# [4] = calcium uptake assay, read-out: IC50 hP2X3 (nM), Ca Influx
# [5] = Ca influx (calcium uptake assay), read-out: IC50 hP2X2/3H
# [6] = Ca influx (calcium uptake assay), read-out: IC50 hP2X3
Compound,"IC50 [1, 3] [nM]","IC50 [2, 4] [nM]","IC50 [1, 5] [nM]","IC50 [2, 6] [nM]"
"Cc1ccc(-c2cc(C(=O)NCc3ccc(C)nc3)cc(C(=O)N(C)Cc3ccncc3)c2)cc1 [Compound 162, N3,4′-Dimethyl-N-5-((6-methylpyridin-3-yl)methyl)-N3-(pyridin-4-ylmethyl)biphenyl-3,5-dicarboxamide]",< 100,< 100,,
Cc1ccc(-c2cc(C(=O)NCc3ccc(C(F)(F)F)nc3)cc(C(=O)N3CC[C@@H](O)C3)c2)nc1 [Compound 146],< 100,< 100,,
"Cc1ccc(-c2cc(C(=O)NCc3ccc(C(F)(F)F)nc3)cc(C(=O)N3CCCC3)c2)c(C#N)c1 [Compound 62, 2′-Cyano-4′-methyl-5-(pyrrolidine-1-carbonyl)-N-((6-(trifluoromethyl)pyridin-3-yl)methyl)biphenyl-3-carboxamide]",100 to 500,< 100,,
"Cc1ccc(-c2cc(C(=O)NCc3cnc(C)nc3)cc(C(=O)N(C)CC(C)C)c2)cc1 [Compound 12, N3-Isobutyl-N3,4′-dimethyl-N5-((2-methylpyrimidin-5-yl)methyl)biphenyl-3,5-dicarboxamide]",< 100,< 100,,
COc1ncc(CNC(=O)c2cc(C(=O)N3CC(O)C3)cc(-c3ccc(C)cc3)c2)cn1 [Compound 133],100 to 500,< 100,,
Cc1ccc(-c2cc(C(=O)NCc3ccc(C(F)(F)F)c(F)c3)cc(C(=O)N3CC[C@@H](O)C3)c2)nc1 [Compound 151],100 to 500,< 100,,
"Cc1ccc(-c2cc(C(=O)O)cc(C(=O)NCc3cnc(C)nc3)c2)cc1 [Compound 21, 4′-Methyl-5-((2-methylpyrimidin-5-yl)methylcarbamoyl)biphenyl-3-carboxylic acid]",> 1000,100 to 500,,
Cc1ccc(-c2cc(C(=O)NCc3ccc(C)nc3)cc(S(=O)(=O)N3CCCC3)c2)cc1 [Compound 105],< 100,< 100,,
Cc1ccc(-c2cc(C(=O)NC(C)c3ccc4c(c3)OCO4)cc(C(=O)N3CCCC3)c2)cc1 (stereo not shown) [Compound 97],100 to 500,100 to 500,,
Cc1ccc(-c2cc(C(=O)N[C@@H](C)CO)cc(C(=O)N[C@@H](C)CO)c2)cc1 [Compound 5],501 to 1000,> 1000,,
Cc1ccc(-c2cc(C(=O)NCc3ccc(C)nc3)cc(C(=O)N3CCCC3)c2)cc1 [Compound 60],< 100,< 100,,
Cc1ccc(-c2cc(C(=O)NC(C)c3ccc(Cl)c(S(C)(=O)=O)c3)cc(S(C)(=O)=O)c2)cc1 (stereo not shown) [Compound 26],< 100,< 100,,

# The next lines start with the values.
"IC50 [1, 3] [nM]","IC50 [2, 4] [nM]","IC50 [1, 5] [nM]","IC50 [2, 6] [nM]",Compound
,,100 to 500,< 100,Cc1ccc(-c2cc(Oc3ncccn3)cc(C(=O)N[C@H](C)c3ccc(C)nc3)c2)nc1 [Compound 272]
,,100 to 500,100 to 500,Cc1ccc(-c2cc(Oc3nc4c(s3)CCCC4)cc(C(=O)N[C@H](C)c3ccc(C)nc3)c2)cc1 [Compound 393]
,,< 100,< 100,Cc1ccc(-c2cc(OC3CCOC3)cc(C(=O)N[C@H](C)c3ccc(C)nc3)c2)c(C#N)c1 (stereo partly shown) [Compound 314]
,,> 1000,> 1000,Cc1ccc(-c2cc(C(=O)NCc3cnc4[nH]ccc4c3)cc(C(=O)N3CCCC3)c2)cc1 [Compound 231]
,,< 100,< 100,Cc1ccc(-c2cc(OCC(O)CO)cc(C(=O)N[C@H](C)c3ccc(C)nc3)c2)cc1 (stereo partly shown) [Compound 318]
,,< 100,< 100,"Cc1ccc(-c2cc(C(=O)N[C@H](C)c3cnc(C)nc3)cc(S(=O)(=O)C3CCCC3)c2)cc1 [Compound 219, (R)-5-(Cyclopentylsulfonyl)-4′-methyl-N-(1-(2-methylpyrimidin-5-yl)ethyl)biphenyl-3-carboxamide]"
,,< 100,< 100,Cc1ccc(-c2cc(C(=O)NCc3ccc(C)nc3)cc(S(=O)(=O)C(C)C)c2)cc1 [Compound 199]
,,< 100,< 100,Cc1ccc(-c2cc(C(=O)N[C@H](C)c3cnc(C)nc3)cc(S(=O)(=O)C(C)C)c2)cc1 [Compound 198]
